According to ChEMBL document CHEMBL4507305, “Data for DCP probe TP-024” (2021):

What was measured:
[1] = test system: Tyrosine-protein kinase ABL1 (Homo sapiens), P00519 [F317I]; settings: Compound concentration 1000.0 nM
[2] = target: Activin receptor type-1-like (Homo sapiens) (UniProt P37023); settings: Compound concentration 1000.0 nM
[3] = target: Mitogen-activated protein kinase kinase kinase 6 (Homo sapiens) (UniProt O95382); settings: Compound concentration 1000.0 nM
[4] = target: Aurora kinase C (Homo sapiens) (UniProt Q9UQB9); settings: Compound concentration 1000.0 nM
[5] = target: Calcium/calmodulin-dependent protein kinase type 1 (Homo sapiens) (UniProt Q14012); settings: Compound concentration 1000.0 nM
[6] = target: Calcium/calmodulin-dependent protein kinase type II subunit beta (Homo sapiens) (UniProt Q13554); settings: Compound concentration 1000.0 nM
[7] = target: Cyclin-dependent kinase 4 (Homo sapiens) (UniProt P11802); settings: Compound concentration 1000.0 nM
[8] = target: Cyclin-dependent kinase 8 (Homo sapiens) (UniProt P49336); settings: Compound concentration 1000.0 nM
[9] = target: Dual specificity protein kinase CLK1 (Homo sapiens) (UniProt P49759); settings: Compound concentration 1000.0 nM
[10] = target: Dual specificity protein kinase CLK2 (Homo sapiens) (UniProt P49760); settings: Compound concentration 1000.0 nM
[11] = test system: Epidermal growth factor receptor (Homo sapiens), P00533 [G719C]; settings: Compound concentration 1000.0 nM
[12] = test system: Receptor-type tyrosine-protein kinase FLT3 (Homo sapiens), P36888 [D835H]; settings: Compound concentration 1000.0 nM
[13] = test system: Receptor-type tyrosine-protein kinase FLT3 (Homo sapiens), P36888 [UNDEFINED MUTATION]; settings: Compound concentration 1000.0 nM
[14] = test system: Receptor-type tyrosine-protein kinase FLT3 (Homo sapiens), P36888 [K663Q]; settings: Compound concentration 1000.0 nM
[15] = target: Vascular endothelial growth factor receptor 3 (Homo sapiens) (UniProt P35916); settings: Compound concentration 1000.0 nM
[16] = target: Tyrosine-protein kinase FRK (Homo sapiens) (UniProt P42685); settings: Compound concentration 1000.0 nM
[17] = target: Tyrosine-protein kinase Fyn (Homo sapiens) (UniProt P06241); settings: Compound concentration 1000.0 nM
[18] = target: Hormonally up-regulated neu tumor-associated kinase (Homo sapiens) (UniProt P57058); settings: Compound concentration 1000.0 nM
[19] = target: Interleukin-1 receptor-associated kinase 3 (Homo sapiens) (UniProt Q9Y616); settings: Compound concentration 1000.0 nM
[20] = target: Tyrosine-protein kinase JAK3 (Homo sapiens) (UniProt P52333); settings: Compound concentration 1000.0 nM
[21] = test system: Mast/stem cell growth factor receptor Kit (Homo sapiens), P10721 [D816V]; settings: Compound concentration 1000.0 nM
[22] = target: Serine/threonine-protein kinase LATS1 (Homo sapiens) (UniProt O95835); settings: Compound concentration 1000.0 nM
[23] = test system: Leucine-rich repeat serine/threonine-protein kinase 2 (Homo sapiens), Q5S007 [G2019S]; settings: Compound concentration 1000.0 nM
[24] = target: Tyrosine-protein kinase Lyn (Homo sapiens) (UniProt P07948); settings: Compound concentration 1000.0 nM
[25] = target: Mitogen-activated protein kinase kinase kinase 2 (Homo sapiens) (UniProt Q9Y2U5); settings: Compound concentration 1000.0 nM
[26] = target: Mitogen-activated protein kinase kinase kinase 4 (Homo sapiens) (UniProt Q9Y6R4); settings: Compound concentration 1000.0 nM
[27] = target: Dual specificity mitogen-activated protein kinase kinase 4 (Homo sapiens) (UniProt P45985); settings: Compound concentration 1000.0 nM
[28] = target: Dual specificity mitogen-activated protein kinase kinase 7 (Homo sapiens) (UniProt O14733); settings: Compound concentration 1000.0 nM
[29] = target: Myosin light chain kinase 2, skeletal/cardiac muscle (Homo sapiens) (UniProt Q9H1R3); settings: Compound concentration 1000.0 nM
[30] = target: Mitogen-activated protein kinase kinase kinase 14 (Homo sapiens) (UniProt Q99558); settings: Compound concentration 1000.0 nM
[31] = target: Serine/threonine-protein kinase NLK (Homo sapiens) (UniProt Q9UBE8); settings: Compound concentration 1000.0 nM
[32] = target: Serine/threonine-protein kinase PAK 5 (Homo sapiens) (UniProt Q9P286); settings: Compound concentration 1000.0 nM
[33] = target: Phosphatidylinositol 4,5-bisphosphate 3-kinase catalytic subunit delta isoform (Homo sapiens) (UniProt O00329); settings: Compound concentration 1000.0 nM
[34] = target: Serine/threonine-protein kinase pim-1 (Homo sapiens) (UniProt P11309); settings: Compound concentration 1000.0 nM
[35] = target: Serine/threonine-protein kinase PLK3 (Homo sapiens) (UniProt Q9H4B4); settings: Compound concentration 1000.0 nM
[36] = target: Serine/threonine-protein kinase D3 (Homo sapiens) (UniProt O94806); settings: Compound concentration 1000.0 nM
[37] = target: Receptor-interacting serine/threonine-protein kinase 2 (Homo sapiens) (UniProt O43353); settings: Compound concentration 1000.0 nM
[38] = target: Ribosomal protein S6 kinase alpha-1 (Homo sapiens) (UniProt Q15418); settings: Compound concentration 1000.0 nM
[39] = target: Serine/threonine-protein kinase tousled-like 1 (Homo sapiens) (UniProt Q9UKI8); settings: Compound concentration 1000.0 nM
[40] = target: Non-receptor tyrosine-protein kinase TNK1 (Homo sapiens) (UniProt Q13470); settings: Compound concentration 1000.0 nM
[41] = target: Wee1-like protein kinase 2 (Homo sapiens) (UniProt P0C1S8); settings: Compound concentration 1000.0 nM
[42] = target: Serine/threonine-protein kinase 32C (Homo sapiens) (UniProt Q86UX6); settings: Compound concentration 1000.0 nM
[43] = target: 5-hydroxytryptamine receptor 1D (Homo sapiens) (UniProt P28221); settings: Compound concentration 10.0 uM
[44] = target: Histamine H3 receptor (Homo sapiens) (UniProt Q9Y5N1); settings: Compound concentration 10.0 uM
[45] = target: Beta-1 adrenergic receptor (Homo sapiens) (UniProt P08588); settings: Compound concentration 10.0 uM

Sequence of Serine/threonine-protein kinase 32C (Homo sapiens) (Q86UX6 whole entry): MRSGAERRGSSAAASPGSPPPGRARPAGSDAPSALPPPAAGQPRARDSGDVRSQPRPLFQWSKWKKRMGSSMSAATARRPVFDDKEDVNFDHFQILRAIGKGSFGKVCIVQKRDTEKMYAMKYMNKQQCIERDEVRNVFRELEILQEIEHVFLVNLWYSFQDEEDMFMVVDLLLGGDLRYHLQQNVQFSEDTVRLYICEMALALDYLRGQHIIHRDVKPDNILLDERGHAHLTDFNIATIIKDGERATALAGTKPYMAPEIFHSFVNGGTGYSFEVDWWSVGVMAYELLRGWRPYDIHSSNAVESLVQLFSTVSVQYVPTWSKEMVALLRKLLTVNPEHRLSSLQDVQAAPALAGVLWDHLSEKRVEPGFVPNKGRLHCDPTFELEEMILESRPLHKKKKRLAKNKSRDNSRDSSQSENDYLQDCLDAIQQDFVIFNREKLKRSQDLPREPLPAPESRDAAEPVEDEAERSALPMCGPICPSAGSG
Sequence of Mitogen-activated protein kinase kinase kinase 14 (Homo sapiens) (Q99558 whole entry, looked up): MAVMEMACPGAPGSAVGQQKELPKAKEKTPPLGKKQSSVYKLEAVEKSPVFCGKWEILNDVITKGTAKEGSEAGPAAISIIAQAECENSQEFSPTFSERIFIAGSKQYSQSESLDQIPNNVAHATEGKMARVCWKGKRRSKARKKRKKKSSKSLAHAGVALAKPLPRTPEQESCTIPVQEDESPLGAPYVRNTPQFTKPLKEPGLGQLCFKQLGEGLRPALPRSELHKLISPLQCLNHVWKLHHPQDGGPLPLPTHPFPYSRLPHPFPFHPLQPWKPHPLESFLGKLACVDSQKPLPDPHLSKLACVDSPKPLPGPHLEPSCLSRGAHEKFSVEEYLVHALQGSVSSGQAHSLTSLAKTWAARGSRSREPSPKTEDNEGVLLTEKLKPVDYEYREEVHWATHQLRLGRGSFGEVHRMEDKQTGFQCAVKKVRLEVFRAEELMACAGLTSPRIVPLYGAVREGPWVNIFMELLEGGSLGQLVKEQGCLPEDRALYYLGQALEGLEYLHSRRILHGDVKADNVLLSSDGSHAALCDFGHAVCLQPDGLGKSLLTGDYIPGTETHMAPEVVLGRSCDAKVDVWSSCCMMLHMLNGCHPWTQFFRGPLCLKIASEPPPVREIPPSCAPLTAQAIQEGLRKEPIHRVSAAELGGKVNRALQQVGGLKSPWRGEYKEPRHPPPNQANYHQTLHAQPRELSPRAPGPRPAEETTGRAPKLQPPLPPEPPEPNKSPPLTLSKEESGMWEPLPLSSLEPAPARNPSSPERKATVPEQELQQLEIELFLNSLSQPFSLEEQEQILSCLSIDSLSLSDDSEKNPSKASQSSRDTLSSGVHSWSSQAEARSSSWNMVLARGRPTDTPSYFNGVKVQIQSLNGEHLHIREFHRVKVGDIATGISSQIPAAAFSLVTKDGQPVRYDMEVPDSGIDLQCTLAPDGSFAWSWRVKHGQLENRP
Sequence of Hormonally up-regulated neu tumor-associated kinase (Homo sapiens) (P57058 whole entry): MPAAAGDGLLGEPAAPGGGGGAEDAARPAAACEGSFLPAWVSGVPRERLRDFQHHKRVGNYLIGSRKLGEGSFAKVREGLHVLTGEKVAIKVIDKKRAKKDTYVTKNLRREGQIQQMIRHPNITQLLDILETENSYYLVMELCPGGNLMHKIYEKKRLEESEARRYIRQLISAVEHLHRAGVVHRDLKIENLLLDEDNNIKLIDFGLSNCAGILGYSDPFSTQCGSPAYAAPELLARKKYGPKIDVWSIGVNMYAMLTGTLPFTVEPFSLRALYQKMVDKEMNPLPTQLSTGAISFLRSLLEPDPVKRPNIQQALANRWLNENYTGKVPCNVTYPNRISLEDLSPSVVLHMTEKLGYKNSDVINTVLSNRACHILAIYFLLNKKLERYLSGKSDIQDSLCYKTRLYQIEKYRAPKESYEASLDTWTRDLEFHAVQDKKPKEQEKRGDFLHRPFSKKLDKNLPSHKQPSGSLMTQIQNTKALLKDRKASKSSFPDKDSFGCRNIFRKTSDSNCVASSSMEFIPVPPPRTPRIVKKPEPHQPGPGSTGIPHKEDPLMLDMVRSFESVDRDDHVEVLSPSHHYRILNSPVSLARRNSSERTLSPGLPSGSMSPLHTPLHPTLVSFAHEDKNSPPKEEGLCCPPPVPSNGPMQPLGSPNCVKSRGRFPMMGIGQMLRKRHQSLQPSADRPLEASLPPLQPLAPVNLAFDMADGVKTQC
Sequence of Ribosomal protein S6 kinase alpha-1 (Homo sapiens) (Q15418 whole entry): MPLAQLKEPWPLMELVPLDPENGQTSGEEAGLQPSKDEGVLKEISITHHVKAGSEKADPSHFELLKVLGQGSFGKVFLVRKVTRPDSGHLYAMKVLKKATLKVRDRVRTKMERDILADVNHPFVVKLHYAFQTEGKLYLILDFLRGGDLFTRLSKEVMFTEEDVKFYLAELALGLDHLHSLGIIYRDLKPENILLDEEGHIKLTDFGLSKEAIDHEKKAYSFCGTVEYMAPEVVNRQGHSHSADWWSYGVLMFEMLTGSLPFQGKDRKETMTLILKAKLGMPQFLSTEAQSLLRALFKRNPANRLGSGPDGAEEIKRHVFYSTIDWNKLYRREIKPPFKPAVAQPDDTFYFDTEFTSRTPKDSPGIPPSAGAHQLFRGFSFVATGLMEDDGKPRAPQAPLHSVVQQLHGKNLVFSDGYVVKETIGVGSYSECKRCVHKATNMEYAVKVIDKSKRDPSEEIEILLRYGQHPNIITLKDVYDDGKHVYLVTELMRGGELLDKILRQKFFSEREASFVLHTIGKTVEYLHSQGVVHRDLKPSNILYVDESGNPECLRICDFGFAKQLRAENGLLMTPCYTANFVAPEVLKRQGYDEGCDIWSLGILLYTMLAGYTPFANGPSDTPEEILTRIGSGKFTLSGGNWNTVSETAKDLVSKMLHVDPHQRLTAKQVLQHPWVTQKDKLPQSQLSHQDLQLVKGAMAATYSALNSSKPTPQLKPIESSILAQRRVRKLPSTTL
Sequence of Mitogen-activated protein kinase kinase kinase 2 (Homo sapiens) (Q9Y2U5 whole entry): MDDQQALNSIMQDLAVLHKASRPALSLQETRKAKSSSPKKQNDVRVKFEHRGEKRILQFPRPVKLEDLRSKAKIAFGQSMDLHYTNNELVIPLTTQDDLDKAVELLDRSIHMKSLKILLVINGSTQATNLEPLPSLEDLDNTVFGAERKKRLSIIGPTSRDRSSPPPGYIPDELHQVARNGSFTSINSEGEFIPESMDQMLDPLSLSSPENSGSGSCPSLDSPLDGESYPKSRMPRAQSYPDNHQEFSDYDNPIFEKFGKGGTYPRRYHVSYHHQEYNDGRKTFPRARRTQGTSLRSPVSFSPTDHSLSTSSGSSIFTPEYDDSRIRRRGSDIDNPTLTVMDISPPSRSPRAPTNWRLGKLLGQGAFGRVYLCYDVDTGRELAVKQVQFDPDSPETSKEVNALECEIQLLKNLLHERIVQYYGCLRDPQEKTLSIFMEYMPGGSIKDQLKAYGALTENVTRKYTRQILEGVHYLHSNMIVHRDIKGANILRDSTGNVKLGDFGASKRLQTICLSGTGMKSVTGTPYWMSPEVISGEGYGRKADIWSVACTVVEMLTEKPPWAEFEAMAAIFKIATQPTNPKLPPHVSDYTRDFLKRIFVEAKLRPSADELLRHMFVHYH
Sequence of Dual specificity protein kinase CLK1 (Homo sapiens) (P49759 whole entry, looked up): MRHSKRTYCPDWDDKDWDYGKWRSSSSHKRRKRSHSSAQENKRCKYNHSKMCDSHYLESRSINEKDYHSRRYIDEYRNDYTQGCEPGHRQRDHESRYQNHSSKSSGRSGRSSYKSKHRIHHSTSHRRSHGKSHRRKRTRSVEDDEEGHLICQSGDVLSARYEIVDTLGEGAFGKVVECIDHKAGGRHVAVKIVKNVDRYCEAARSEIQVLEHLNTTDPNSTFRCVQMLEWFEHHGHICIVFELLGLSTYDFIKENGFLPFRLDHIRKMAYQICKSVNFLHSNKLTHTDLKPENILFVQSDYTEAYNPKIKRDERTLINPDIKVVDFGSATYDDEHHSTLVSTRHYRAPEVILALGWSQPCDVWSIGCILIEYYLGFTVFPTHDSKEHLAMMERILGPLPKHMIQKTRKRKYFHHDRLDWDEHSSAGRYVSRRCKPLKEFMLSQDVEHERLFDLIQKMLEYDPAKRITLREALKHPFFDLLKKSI
Sequence of Mast/stem cell growth factor receptor Kit (Homo sapiens), P10721 [D816V] (P10721 whole entry D816V): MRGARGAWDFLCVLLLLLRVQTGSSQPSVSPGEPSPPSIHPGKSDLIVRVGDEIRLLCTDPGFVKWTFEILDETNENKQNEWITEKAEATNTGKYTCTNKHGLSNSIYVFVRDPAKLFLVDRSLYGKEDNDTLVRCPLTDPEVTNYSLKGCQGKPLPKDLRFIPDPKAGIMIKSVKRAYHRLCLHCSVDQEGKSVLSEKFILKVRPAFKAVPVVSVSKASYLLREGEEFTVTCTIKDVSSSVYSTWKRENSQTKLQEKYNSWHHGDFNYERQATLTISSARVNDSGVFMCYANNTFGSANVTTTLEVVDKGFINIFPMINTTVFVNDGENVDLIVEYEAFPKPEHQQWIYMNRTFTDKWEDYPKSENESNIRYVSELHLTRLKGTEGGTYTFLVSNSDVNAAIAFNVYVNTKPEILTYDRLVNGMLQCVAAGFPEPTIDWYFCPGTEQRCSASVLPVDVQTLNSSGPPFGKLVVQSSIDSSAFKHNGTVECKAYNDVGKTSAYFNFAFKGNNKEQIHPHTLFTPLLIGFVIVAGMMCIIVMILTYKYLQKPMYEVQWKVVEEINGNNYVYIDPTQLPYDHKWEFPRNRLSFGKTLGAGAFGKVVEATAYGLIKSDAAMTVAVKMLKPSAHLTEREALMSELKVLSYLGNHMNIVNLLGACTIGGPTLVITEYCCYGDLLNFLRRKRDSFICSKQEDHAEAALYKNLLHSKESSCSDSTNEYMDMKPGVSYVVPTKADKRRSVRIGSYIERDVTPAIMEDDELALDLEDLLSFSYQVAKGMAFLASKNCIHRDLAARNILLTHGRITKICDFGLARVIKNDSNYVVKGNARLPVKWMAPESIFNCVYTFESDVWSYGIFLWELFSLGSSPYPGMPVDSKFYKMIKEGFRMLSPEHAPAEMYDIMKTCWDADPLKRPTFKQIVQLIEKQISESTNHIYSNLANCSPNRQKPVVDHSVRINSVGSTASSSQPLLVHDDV

Cc1nc(Cc2cccc(C(F)(F)F)c2)sc1-c1ccc(C(N)=O)nc1 [TP-024n]
inactive: residual activity [1] 100% | residual activity [2] 99% | residual activity [3] 99% | residual activity [4] 100% | residual activity [5] 86% | residual activity [6] 100% | residual activity [7] 99% | residual activity [8] 100% | residual activity [9] 83% | residual activity [10] 100% | residual activity [11] 94% | residual activity [12] 100% | residual activity [13] 100% | residual activity [14] 88% | residual activity [15] 100% | residual activity [16] 100% | residual activity [17] 100% | residual activity [18] 90% | residual activity [19] 100% | residual activity [20] 100% | residual activity [21] 81% | residual activity [22] 100% | residual activity [23] 82% | residual activity [24] 95% | residual activity [25] 100% | residual activity [26] 72% | residual activity [27] 100% | residual activity [28] 100% | residual activity [29] 77% | residual activity [30] 100% | residual activity [31] 100% | residual activity [32] 97% | residual activity [33] 100% | residual activity [34] 96% | residual activity [35] 94% | residual activity [36] 97% | residual activity [37] 100% | residual activity [38] 100% | residual activity [39] 100% | residual activity [40] 85% | residual activity [41] 100% | residual activity [42] 87% | inhibition [43] 8.49% | inhibition [44] 3.48% | inhibition [45] 7.56%

Cc1cc(-n2nc(Cc3cc(F)cc(C(F)(F)F)c3)nc2C)ccc1C(N)=O [TP-024]
inactive: residual activity [1] 100% | residual activity [2] 100% | residual activity [3] 100% | residual activity [4] 100% | residual activity [5] 90% | residual activity [6] 100% | residual activity [7] 100% | residual activity [8] 97% | residual activity [9] 86% | residual activity [10] 94% | residual activity [11] 100% | residual activity [12] 100% | residual activity [13] 100% | residual activity [14] 100% | residual activity [15] 97% | residual activity [16] 100% | residual activity [17] 100% | residual activity [18] 89% | residual activity [19] 100% | residual activity [20] 100% | residual activity [21] 100% | residual activity [22] 100% | residual activity [23] 100% | residual activity [24] 100% | residual activity [25] 100% | residual activity [26] 98% | residual activity [27] 100% | residual activity [28] 100% | residual activity [29] 91% | residual activity [30] 100% | residual activity [31] 100% | residual activity [32] 100% | residual activity [33] 52% | residual activity [34] 100% | residual activity [35] 100% | residual activity [36] 81% | residual activity [37] 100% | residual activity [38] 100% | residual activity [39] 93% | residual activity [40] 69% | residual activity [41] 100% | residual activity [42] 100% | inhibition [43] 12.5% | inhibition [44] 11.4% | inhibition [45] 11.8%
